# Reference: PubChem BioAssay (NCI)
#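 Where inhibition never reached the appropriate level, the endpoint shown equals the highest concentration tested. Otherwise, values were interpolated linearly from a five-concentration, 48-hour dose response in 96-well plates. Definition used: TGI = concentration required for complete inhibition of growth.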
# What was measured:
# Experiment in all cases: NCI tumour cell line growth inhibition, 48 h
# BT-549 breast = system: BT-549 breast
# SK-MEL-28 melanoma = system: SK-MEL-28 melanoma
# DU-145 prostate = system: DU-145 prostate
# SF-539 CNS = system: SF-539 CNS
# SK-MEL-5 melanoma = system: SK-MEL-5 melanoma
# HL-60(TB) leukemia = system: HL-60(TB) leukemia
# K-562 leukemia = system: K-562 leukemia
# PC-3 prostate = system: PC-3 prostate
# NCI-H23 lung = system: NCI-H23 lung
# KM12 colon = system: KM12 colon
# CCRF-CEM leukemia = system: CCRF-CEM leukemia
# SK-MEL-2 melanoma = system: SK-MEL-2 melanoma
# CAKI-1 renal = system: CAKI-1 renal
# HT29 colon = system: HT29 colon
# UACC-62 melanoma = system: UACC-62 melanoma
# SR leukemia = system: SR leukemia
# OVCAR-3 ovarian = system: OVCAR-3 ovarian
# 786-0 renal = system: 786-0 renal
# U251 CNS = system: U251 CNS
# T-47D breast = system: T-47D breast
# UACC-257 melanoma = system: UACC-257 melanoma
# OVCAR-4 ovarian = system: OVCAR-4 ovarian
# HCT-15 colon = system: HCT-15 colon
# MOLT-4 leukemia = system: MOLT-4 leukemia
# IGROV1 ovarian = system: IGROV1 ovarian
# NCI/ADR-RES ovarian = system: NCI/ADR-RES ovarian
# HCC-2998 colon = system: HCC-2998 colon
# MALME-3M melanoma = system: MALME-3M melanoma
# HS 578T breast = system: HS 578T breast
# SN12C renal = system: SN12C renal
# LOX IMVI melanoma = system: LOX IMVI melanoma
# SF-295 CNS = system: SF-295 CNS
# RPMI-8226 leukemia = system: RPMI-8226 leukemia
# COLO 205 colon = system: COLO 205 colon
# OVCAR-8 ovarian = system: OVCAR-8 ovarian
# RXF 393 renal = system: RXF 393 renal
# NCI-H460 lung = system: NCI-H460 lung
# SF-268 CNS = system: SF-268 CNS
# MDA-MB-435 = system: MDA-MB-435
# MDA-N = system: MDA-N
# A498 renal = system: A498 renal
# OVCAR-5 ovarian = system: OVCAR-5 ovarian
# SW-620 colon = system: SW-620 colon
# MDA-MB-231 breast = system: MDA-MB-231 breast
# HOP-92 NSCLC = system: HOP-92 NSCLC
# SNB-19 CNS = system: SNB-19 CNS
# TK-10 renal = system: TK-10 renal
# A549 NSCLC = system: A549 NSCLC
# HCT-116 colon = system: HCT-116 colon
# EKVX NSCLC = system: EKVX NSCLC
# SK-OV-3 ovarian = system: SK-OV-3 ovarian
# NCI-H522 lung = system: NCI-H522 lung
# MCF7 breast = system: MCF7 breast
# NCI-H226 lung = system: NCI-H226 lung
# ACHN renal = system: ACHN renal
# HOP-62 NSCLC = system: HOP-62 NSCLC
# M14 melanoma = system: M14 melanoma
# SNB-75 CNS = system: SNB-75 CNS
smiles,measurement,setting,value
COc1ccc(-c2cc(-c3ccc(Nc4ccnc5cc(C(F)(F)F)ccc45)cc3)[nH]c(=O)c2C#N)cc1,TGI,BT-549 breast,> 94.9 µM
same,TGI,SK-MEL-28 melanoma,> 100 µM
same,TGI,DU-145 prostate,> 100 µM
same,TGI,SF-539 CNS,> 68.9 µM
same,TGI,SK-MEL-5 melanoma,> 100 µM
same,TGI,HL-60(TB) leukemia,> 100 µM
same,TGI,K-562 leukemia,> 100 µM
same,TGI,PC-3 prostate,> 100 µM
same,TGI,NCI-H23 lung,> 60.8 µM
same,TGI,KM12 colon,> 100 µM
same,TGI,CCRF-CEM leukemia,> 100 µM
same,TGI,SK-MEL-2 melanoma,> 100 µM
same,TGI,CAKI-1 renal,> 100 µM
same,TGI,HT29 colon,> 80.4 µM
same,TGI,UACC-62 melanoma,> 100 µM
same,TGI,SR leukemia,> 100 µM
same,TGI,OVCAR-3 ovarian,> 100 µM
same,TGI,786-0 renal,> 100 µM
same,TGI,U251 CNS,> 70.9 µM
same,TGI,T-47D breast,> 100 µM
same,TGI,UACC-257 melanoma,> 100 µM
same,TGI,OVCAR-4 ovarian,> 100 µM
same,TGI,HCT-15 colon,> 100 µM
same,TGI,MOLT-4 leukemia,> 100 µM
same,TGI,IGROV1 ovarian,> 100 µM
same,TGI,NCI/ADR-RES ovarian,> 100 µM
same,TGI,HCC-2998 colon,> 100 µM
same,TGI,MALME-3M melanoma,> 100 µM
same,TGI,HS 578T breast,49.6 µM
same,TGI,SN12C renal,> 100 µM
same,TGI,LOX IMVI melanoma,> 100 µM
same,TGI,SF-295 CNS,> 57.6 µM
same,TGI,RPMI-8226 leukemia,> 100 µM
same,TGI,COLO 205 colon,> 63.7 µM
same,TGI,OVCAR-8 ovarian,> 100 µM
same,TGI,RXF 393 renal,> 53.5 µM
same,TGI,NCI-H460 lung,> 100 µM
same,TGI,SF-268 CNS,> 88.6 µM
same,TGI,MDA-MB-435,> 100 µM
same,TGI,MDA-N,98.5 µM
same,TGI,A498 renal,> 55.1 µM
same,TGI,OVCAR-5 ovarian,> 100 µM
same,TGI,SW-620 colon,> 100 µM
same,TGI,MDA-MB-231 breast,> 82.9 µM
same,TGI,HOP-92 NSCLC,> 100 µM
same,TGI,SNB-19 CNS,56.7 µM
same,TGI,TK-10 renal,> 68.2 µM
same,TGI,A549 NSCLC,> 100 µM
same,TGI,HCT-116 colon,> 100 µM
same,TGI,EKVX NSCLC,> 100 µM
same,TGI,SK-OV-3 ovarian,> 47.4 µM
same,TGI,NCI-H522 lung,> 100 µM
same,TGI,MCF7 breast,> 100 µM
same,TGI,NCI-H226 lung,> 70.9 µM
same,TGI,ACHN renal,> 100 µM
same,TGI,HOP-62 NSCLC,> 41.1 µM
same,TGI,M14 melanoma,> 100 µM
same,TGI,SNB-75 CNS,62.2 µM
